Measured values reported in paper PMC8263428, “Improved in vivo PET imaging of the adenosine A2A receptor in the brain using [^18F]FLUDA, a deuterated radiotracer with high metabolic stability” (European Journal of Nuclear Medicine and Molecular Imaging, 2021).
Like-named read-outs stand apart in the source and are kept apart here.

Legend:
piglet A2A receptor [1] = target: T1, piglet A2A receptor (Sus scrofa, UniProt K9IW67); set-up: method as in earlier work; conditions: autoradiographic study; ref [20] (supplement); cited from earlier work
piglet A2A receptor [2] = target: T1, piglet A2A receptor; experiment: In vitro autoradiography with [18F]FLUDA on pig brain cryosections; conditions: for Ki: read-out: Ki piglet A2A receptor, autoradiographic study versus [18F]FLUDA, striatum cryosection
Procedure: (§5) Biological evaluation – All animal studies followed the international guidelines of animal care and were
(§6) approved by Landesdirektion Leipzig, the local authority for animal care (Reg.-Nr.: TVV 18/18;
(§7) The animal experiments were performed with female CD-1
(§8) mice (n = 23, 10-12 weeks, 26-38 g) obtained from the Medizinisch-Experimentelles Zentrum (MEZ)
(§9) at Universität Leipzig (Leipzig; Germany) and female piglets (n = 2, 6-12 weeks old, 14-18 kg) obtained
(§10) from the Lehr- und Versuchsgut of the Faculty of Veterinary Medicine at Universität Leipzig (LVG;
(§11) In vitro autoradiography – Binding studies on brain sections were performed as previously
(§12) described.[9] Brains of CD-1 mice frozen in isopentane were cut using a cryostat (MICROM HM560;
(§13) Fisher Scientific GmbH; Schwerte; Germany), thaw-mounted onto microscope slides, and after air-
(§14) drying stored at - 80 °C until use. The brain sections were dried in a stream of cold air, and pre-incubated
(§15) in 50 mM TRIS-HCl buffer (pH 7.4, 100 mM NaCl, 5 mM MgCl2, 1 mM EDTA) containing 1 µU/mL
(§16) Afterwards, brain sections were incubated with approx..
(§17) 1 MBq/mL of [18F]FLUDA in buffer for 90 min at room temperature. Non-specific binding was determined in the presence of 10 μM ZM241385. Displacement of [18F]FLUDA was also evaluated
(§18) Subsequently, the sections were washed twice for
(§19) 5 min in ice-cold TRIS-HCl buffer, and dipped for 5 s in ice-cold deionized water. The sections were
(§20) rapidly dried in a stream of cold air before being exposed overnight on an imaging plate. Developed
(§21) autoradiographs were analysed in a phosphor imager (HD-CR 35; Duerr NDT GmbH; Bietigheim-
(§22) Bissingen; Germany). The quantification was performed by using 2D-densitometric analysis (AIDA
Further data analysis was
(§23) performed with GraphPad Prism 4.1 (GraphPad Inc.; La Jolla; CA).

[3] = Tissue biodistribution of radioactivity based on whole-body PET imaging; format: in vivo; conditions: for Uptake (SUV) Blood / Uptake (SUV) Brain / Uptake (SUV) Heart / Uptake (SUV) Kidney / Uptake (SUV) Liver / Uptake (SUV) Muscle / Uptake (SUV) Small intestine / Uptake (SUV) Spleen: n = 4
Text: GmbH; Karlsruhe; […]; Bio-Tehne
(§1) GmbH; Wiesbaden-Nordenstadt; Germany).
(§2) mode: 1-5, ring difference: 81.
(§3) technologies LLC; Zurich; Switzerland).
(§4) The activity data is expressed as mean
(SD). […] . A parametric student T-test

[4] = logD7.4 by shake-flask method (n-octanol/PBS); conditions: pH 7.4
Procedure: The logD7.4 value was experimentally determined by the conventional shake-flask method using n-octanol and PBS as partition system (n = 4).
The partition coefficient of
[18F]FLUDA was experimentally determined for the n-octanol/PBS system by the shake-flask method.
Approx. 900 kBq [18F]FLUDA were added to a mixture of 3 mL of n-octanol and 3 mL of PBS. After
shaking for 20 min at room temperature (RT), the samples were centri fuged (10,000 rpm; 5 min) and
1 mL aliquots of the organic as well as the aqueous layer were taken and measured in a gamma counter
Another 1 mL aliquot of the organic layer was mixed
with 2 mL n-octanol and 3 mL of PBS and subjected to the same procedure until constant partition
coefficient values had been obtained. The measurement was performed in quadruplicate.

[5] = In vivo metabolism in mice (radio-HPLC of plasma and brain); conditions: 15 min after i.v. injection
Text: The blood plasma was obtained by centrifugation. The brain was isolated immediately after cervical dislocation and homogenized in water. For analysis by RP-HPLC, brain homogenates and blood plasma were mixed with the 4-fold volumes of acetone/water (4/1; v/v), precipitated proteins removed by centrifugation, the supernatants were concentrated and analyzed by analytical RP-HPLC. For analysis by micellar-HPLC (MLC), brain homogenates and blood plasma were mixed with equal volumes of aqueous sodium dodecyl sulfate and directly injected into the MLC system.
The radiotracer was intravenously (i.v.) administered as bolus in awake CD -1 mice
Vertrieb Deutschland GmbH; Wesseling-Berzdorf; Germany), and brain homogenized in 1 mL water
on ice (10 strokes of a PTFE plunge at 1000 rpm in a borosilicate glass cylinder; Potter S Homogenizer;
B. Braun Melsungen AG; Melsungen; Germany). All samples were weighed and the respective activity
RR-HPLC: For protein precipitation and extraction an ice -cold mixture of acetone/water (4/1; v/v) was
vortexed for 3 min, equilibrated on ice for 5 min, and centrifuged for 5 min at 10,000 rpm.
separating the supernatant, the precipitates were washed with 100 µL of the solvent mixture and
subjected to the same procedure. The combined supernatants were concentrated at 75 °C under nitrogen
flow to a final volume of approximately 100 µL and analysed by analytical radio -HPLC.
were performed by using a Reprosil-Pur C18-AQ column (250×4.6 mm; 5 µm; Dr. Maisch HPLC
GmbH; Ammerbuch; Germany) and an eluent mixture of MeCN/20 mM NH4OAcaq. (pH 6.8) in gradient
30 min 10% MeCN) at a flow rate of 1.0 mL/min. To determine the percentage of radioactivity in the
supernatants compared to total activity, aliquots of each step as well as the precipitates were quantified
in 170 µL of 100 mM aqueous sodium dodecyl sulfate (SDSaq.). Homogenized brain material (300 µL,
200 µL of 200 mM SDSaq., centrifuged for 5 min at 10,000 rpm and injected into the MLC system.
Isotopenmessgeräte GmbH; Straubenhardt; Germany). Data analysis was performed with the Galaxie
chromatography software (Agilent Technologies). Separations were performed by using a Reprosil-Pur
200 C18-AQ column (250×4.6 mm, 10 µm; Dr. Maisch HPLC GmbH; Ammerbuch; Germany) and an
eluent mixture of EtOH/100 mM SDSaq./25 mM (NH4)2HPO4,aq. in gradient mode (brain: 0–10’ 0%
23–24’ up to 0% EtOH; 24–35’ 0% EtOH//100 mM SDSaq./25 mM (NH4)2HPO4,aq.) at a flow rate of

A2A receptor [6] = target: T2, A2A receptor (Mus musculus, UniProt Q60613); experiment: Dynamic PET/MRI studies in mice, baseline, vehicle and blocking; format: in vivo, CD-1 mice
T2 construct: from tissue; host or cells: brain (striatum) of living female CD-1 mice
Text: as §1, §2, §3, §4
(SD). […] A parametric student T-test

mouse A2A receptor = mouse A2A receptor (Mus musculus, UniProt Q60613); experiment: In vitro autoradiography with [18F]FLUDA on mouse brain cryosections; conditions: autoradiography, homologous competition of [18F]FLUDA with FLUDA
Procedure: as §5, §6, §7, §8, §9, §10, §11, §12, §13, §14, §15, §16, §17, §18, §19, §20, §21, §22
Further data analysis was
as §23

[7] = Chemical stability in saline, PBS and n-octanol; conditions: PBS (pH 7.4), 37 °C up to 60 min, radio-TLC and radio-HPLC
Procedure: Physiochemical properties – The in vitro stability of [18F]FLUDA was investigated by incubation of
approx. 10 MBq at 37 °C in 500 μL NaCl, PBS, n-octanol and pig plasma samples. After 15, 30 and 60
min aliquots were taken and analysed by radio-TLC and radio-HPLC.

A2A receptor [8] = experiment: Dynamic PET studies in piglets, control and blocking; conditions: piglet
Procedure: After reconstruction, PET images were analyzed in PMOD 3.9 (PMOD technologies LLC; Zurich; Switzerland).
PET studies in piglets – PET imaging was performed according to the protocol previously described [14]. Two piglets were fasted on the day of imaging and received an intra muscular injection of 1 mL azaperone and 4 mL ketamine to introduce anaesthesia.
1 mL of midazolam (5 mg/mL) were i.v. injected (ear vein, V. auricularis), followed by 5 mL of G40, 3
mL of ketamine, and 1.5 mL of midazolam in 50 mL of NaCl 0.9% with an infusion pump at a flow rate
animals maintained spontaneous respiration and no mandatory ventilation was applied. Dynamic PET
prior to radiotracer injection followed by a continuous infusion throughout the scan (0.9 mg/kg/h) were
(0.08 - 0.16 fmol/kg, n = 2) in a stand-alone PET system (ECAT Exact HR+, SIEMENS; Erlangen; Germany). The piglets were positioned prone with legs alon gside the body on a custom -made plastic trough including a piglet head -holder. The dynamic PET acquisition (23 frames: 4 x 15 sec, 4 x 60 sec, 5 x 120sec, 5 x 300 sec, 5 x 600 sec) was carried out following a cold transmission scan using Ge 68-line sources for attenuation correction (AC) of the PET emission data. PET data was reconstructed into a
OSEM algorithm with 10 iterations and 16 subsets. The reconstructed data was processed using PMOD v3.9 (PMOD technologies LLC; Zurich; Switzerland).

[9] = In vivo metabolism in piglets (radio-HPLC of plasma); conditions: 16 min p.i., i.v.
Procedure: For analysis by semi-preparative RP-HPLC, blood plasma was mixed with the twofold volumes of acetone/water (4/1; v/v), precipitated proteins were removed by centrifugation, and the supernatants were concentrated and analyzed by semi-preparative RP-HPLC.
In vivo metabolism in piglets – Stability studies of [18F]FLUDA in piglets were performed as
Two piglets were fasted on the day of imaging and received an
intramuscular injection of 1 mL azaperone and 4 mL ketamine to introduce anaesthesia.
2 mL of ketamine and 1 mL of midazolam (5 mg/mL) were i.v. injected (ear vein, V. auricularis),
followed by 5 mL of G40, 3 mL of ketamine, and 1.5 mL of midazolam in 50 mL of NaCl 0.9% with
During narcosis, the animals maintained spontaneous respiration and no mandatory ventilation
The samples were vortexed for 3 min, equilibrated on ice for 5 min, and centrifuged for
5 min at 5,000 rpm. The combined supernatants were concentrated at 75 °C under nitrogen flow to a
final volume of approximately 1 -3 mL and analysed by semi -preparative radio-HPLC.
performed by using a Reprosil-Pur C18-AQ column (150×10 mm, 10 µm; Dr. Maisch HPLC GmbH;
Ammerbuch; Germany) and an eluent mixture of MeCN/20 mM NH4OAcaq.
To determine the percentage of radioactivity in the supernatants
compared to total activity, aliquots of each step as well as the precipitates were quantified by a gamma
With this procedure, recoveries of about […]

T2 sequence (Q60613 whole entry): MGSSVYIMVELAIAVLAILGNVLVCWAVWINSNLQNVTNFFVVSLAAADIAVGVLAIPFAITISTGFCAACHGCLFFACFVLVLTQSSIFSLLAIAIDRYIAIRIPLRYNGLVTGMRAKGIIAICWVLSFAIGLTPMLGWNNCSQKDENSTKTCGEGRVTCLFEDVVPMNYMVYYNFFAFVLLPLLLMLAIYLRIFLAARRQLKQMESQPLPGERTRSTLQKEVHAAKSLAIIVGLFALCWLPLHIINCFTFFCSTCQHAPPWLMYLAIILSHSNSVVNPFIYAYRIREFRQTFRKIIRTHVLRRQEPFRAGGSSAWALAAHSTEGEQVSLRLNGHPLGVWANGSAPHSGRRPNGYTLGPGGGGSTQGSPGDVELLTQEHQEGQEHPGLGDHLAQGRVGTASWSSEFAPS
T1 sequence (K9IW67 1-409): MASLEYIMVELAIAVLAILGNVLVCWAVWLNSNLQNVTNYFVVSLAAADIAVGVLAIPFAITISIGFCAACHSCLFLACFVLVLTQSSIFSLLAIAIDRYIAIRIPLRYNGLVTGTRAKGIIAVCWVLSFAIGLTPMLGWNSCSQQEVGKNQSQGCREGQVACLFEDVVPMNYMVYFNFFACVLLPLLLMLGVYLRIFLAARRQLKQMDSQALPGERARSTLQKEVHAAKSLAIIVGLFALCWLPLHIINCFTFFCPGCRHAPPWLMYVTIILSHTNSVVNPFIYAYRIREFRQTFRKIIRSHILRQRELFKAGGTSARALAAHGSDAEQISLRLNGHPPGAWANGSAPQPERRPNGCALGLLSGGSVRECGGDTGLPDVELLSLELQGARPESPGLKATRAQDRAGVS
mouse A2A receptor, sequence (Q60613 whole entry): as the sequence (Q60613 whole entry) above

Structure (SMILES): Nc1nc(NCCc2ccc(O)cc2)nc2nc(-c3ccco3)nn12 [ZM241385]
- Kd (piglet A2A receptor [1]): 1.8 nM
- blocking of [18F]FLUDA binding in pig brain slices (piglet A2A receptor [2]; co-administration of 10 μM): completely blocked

Structure (SMILES): [2H]C([2H])([18F])C([2H])([2H])Oc1ccc(CCCn2ncc3c2nc(N)n2nc(-c4ccco4)nc32)cc1 [[18F]FLUDA]
- Uptake (SUV) Blood ([3]; 5 min after i.v. injection): 1.59 ± 0.41 SUV
- Uptake (SUV) Brain ([3]; 5 min after i.v. injection): 0.34 ± 0.13 SUV
- Uptake (SUV) Heart ([3]; 5 min after i.v. injection): 0.57 ± 0.13 SUV
- Uptake (SUV) Kidney ([3]; 5 min after i.v. injection): 1.20 ± 0.40 SUV
- Uptake (SUV) Liver ([3]; 5 min after i.v. injection): 5.19 ± 1.50 SUV
- Uptake (SUV) Muscle ([3]; 5 min after i.v. injection): 0.34 ± 0.09 SUV
- Uptake (SUV) Small intestine ([3]; 5 min after i.v. injection): 6.19 ± 1.89 SUV
- Uptake (SUV) Spleen ([3]; 5 min after i.v. injection): 0.51 ± 0.18 SUV
- Uptake (SUV) Blood ([3]; 15 min after i.v. injection): 1.02 ± 0.16 SUV
- Uptake (SUV) Brain ([3]; 15 min after i.v. injection): 0.22 ± 0.05 SUV
- Uptake (SUV) Heart ([3]; 15 min after i.v. injection): 0.32 ± 0.05 SUV
- Uptake (SUV) Kidney ([3]; 15 min after i.v. injection): 0.83 ± 0.64 SUV
- Uptake (SUV) Liver ([3]; 15 min after i.v. injection): 2.89 ± 0.60 SUV
- Uptake (SUV) Muscle ([3]; 15 min after i.v. injection): 0.21 ± 0.05 SUV
- Uptake (SUV) Small intestine ([3]; 15 min after i.v. injection): 23.81 ± 8.91 SUV
- Uptake (SUV) Spleen ([3]; 15 min after i.v. injection): 0.33 ± 0.17 SUV
- Uptake (SUV) Blood ([3]; 30 min after i.v. injection): 0.61 ± 0.21 SUV
- Uptake (SUV) Brain ([3]; 30 min after i.v. injection): 0.11 ± 0.02 SUV
- Uptake (SUV) Heart ([3]; 30 min after i.v. injection): 0.20 ± 0.03 SUV
- Uptake (SUV) Kidney ([3]; 30 min after i.v. injection): 0.77 ± 0.82 SUV
- Uptake (SUV) Liver ([3]; 30 min after i.v. injection): 1.54 ± 0.71 SUV
- Uptake (SUV) Muscle ([3]; 30 min after i.v. injection): 0.12 ± 0.02 SUV
- Uptake (SUV) Small intestine ([3]; 30 min after i.v. injection): 40.11 ± 15.70 SUV
- Uptake (SUV) Spleen ([3]; 30 min after i.v. injection): 0.22 ± 0.13 SUV
- Uptake (SUV) Blood ([3]; 60 min after i.v. injection): 0.51 ± 0.21 SUV
- Uptake (SUV) Brain ([3]; 60 min after i.v. injection): 0.05 ± 0.02 SUV
- Uptake (SUV) Heart ([3]; 60 min after i.v. injection): 0.17 ± 0.04 SUV
- Uptake (SUV) Kidney ([3]; 60 min after i.v. injection): 0.80 ± 0.87 SUV
- Uptake (SUV) Liver ([3]; 60 min after i.v. injection): 1.20 ± 0.75 SUV
- Uptake (SUV) Muscle ([3]; 60 min after i.v. injection): 0.10 ± 0.02 SUV
- Uptake (SUV) Small intestine ([3]; 60 min after i.v. injection): 49.18 ± 24.48 SUV
- Uptake (SUV) Spleen ([3]; 60 min after i.v. injection): 0.20 ± 0.10 SUV
- excretion route ([3]; vehicle-treated mice, whole-body PET): mainly undergo hepatobiliary excretion
- logD at 20 min [4]: 2.01 ± 0.07
- parent fraction in brain (MLC) [5]: ~95%
- parent fraction in brain (RP-HPLC) [5]: about 100%
- parent fraction in plasma (MLC) [5]: ~56%
- parent fraction in plasma (RP-HPLC) [5]: ~71%
- AUC cerebellum of [18F]FLUDA, vehicle pre-treatment (A2A receptor [6]; 0 to 60 min): 5.9 ± 3.0 SUV ∙ min
- AUC striatum of [18F]FLUDA, vehicle pre-treatment (A2A receptor [6]; 0 to 60 min): 24.9 ± 8.7 SUV ∙ min
- maximum SUVrSt/Cb (specific-to-non-specific binding ratio) (A2A receptor [6]; striatum to cerebellum): 8.3
- Kd (mouse A2A receptor; KD mouse striatum): 4.3 ± 0.73 nM
- Bmax mouse striatum (mouse A2A receptor): 556 ± 143 fmol/mg wet weight
- chemical stability [7]: no degradation or defluorination
- maximum striatum-to-cerebellum ratio (A2A receptor [8]): 2.1
- AUC cerebellum of [18F]FLUDA, vehicle (A2A receptor [8]; 0 to 60 min, n = 1): 24.0 SUV ∙ min
- AUC striatum of [18F]FLUDA, vehicle (A2A receptor [8]; 0 to 60 min, n = 1): 42.1 SUV ∙ min
- parent fraction in plasma [9]: about 47%

Structure (SMILES): CCn1c(=O)c2c(nc(/C=C/c3ccc(OC)c(OC)c3)n2C)n(CC)c1=O [istradefylline]
- Ki (piglet A2A receptor [2]): ~15 nM
- Ki (piglet A2A receptor [2]; listed as Istradefylline): 14 nM
